Results from US8501936B2 (priority 2009, dated 2013).

Assays:
human JAK2 = human JAK2 (Homo sapiens (Human), UniProt O60674); details: read-out: JAK2 IC50
human FAK = human FAK (Homo sapiens (Human), UniProt Q05397); details: read-out: FAK IC50
Sequence of human FAK (Q05397 whole entry): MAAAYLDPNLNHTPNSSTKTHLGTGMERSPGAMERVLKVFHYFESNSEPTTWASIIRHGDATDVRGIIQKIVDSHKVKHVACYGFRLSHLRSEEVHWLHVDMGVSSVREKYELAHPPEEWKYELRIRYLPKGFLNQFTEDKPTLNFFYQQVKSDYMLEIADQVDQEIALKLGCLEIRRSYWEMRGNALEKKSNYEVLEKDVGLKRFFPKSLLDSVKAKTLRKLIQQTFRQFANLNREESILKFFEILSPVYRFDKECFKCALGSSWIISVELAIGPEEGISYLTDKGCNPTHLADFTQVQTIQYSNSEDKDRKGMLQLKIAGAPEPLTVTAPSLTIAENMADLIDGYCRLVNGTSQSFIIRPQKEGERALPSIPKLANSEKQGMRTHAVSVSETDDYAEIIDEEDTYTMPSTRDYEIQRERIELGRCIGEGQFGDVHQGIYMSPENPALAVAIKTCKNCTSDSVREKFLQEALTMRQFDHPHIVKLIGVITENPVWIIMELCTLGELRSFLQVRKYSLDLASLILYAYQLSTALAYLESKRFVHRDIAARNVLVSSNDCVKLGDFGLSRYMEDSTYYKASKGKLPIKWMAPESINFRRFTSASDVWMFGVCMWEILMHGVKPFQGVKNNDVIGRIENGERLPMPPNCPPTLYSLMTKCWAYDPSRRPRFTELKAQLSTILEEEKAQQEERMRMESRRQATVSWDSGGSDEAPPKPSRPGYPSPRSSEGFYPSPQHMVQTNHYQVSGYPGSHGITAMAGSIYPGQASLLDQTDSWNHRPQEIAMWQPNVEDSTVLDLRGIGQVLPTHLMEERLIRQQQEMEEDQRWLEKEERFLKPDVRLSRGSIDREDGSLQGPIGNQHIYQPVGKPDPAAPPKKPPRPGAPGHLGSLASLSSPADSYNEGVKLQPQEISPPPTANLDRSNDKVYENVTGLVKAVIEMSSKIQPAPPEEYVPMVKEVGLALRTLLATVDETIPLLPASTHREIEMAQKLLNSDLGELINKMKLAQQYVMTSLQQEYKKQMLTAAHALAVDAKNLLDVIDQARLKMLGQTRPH

Sequence of human JAK2 (O60674 815-1132): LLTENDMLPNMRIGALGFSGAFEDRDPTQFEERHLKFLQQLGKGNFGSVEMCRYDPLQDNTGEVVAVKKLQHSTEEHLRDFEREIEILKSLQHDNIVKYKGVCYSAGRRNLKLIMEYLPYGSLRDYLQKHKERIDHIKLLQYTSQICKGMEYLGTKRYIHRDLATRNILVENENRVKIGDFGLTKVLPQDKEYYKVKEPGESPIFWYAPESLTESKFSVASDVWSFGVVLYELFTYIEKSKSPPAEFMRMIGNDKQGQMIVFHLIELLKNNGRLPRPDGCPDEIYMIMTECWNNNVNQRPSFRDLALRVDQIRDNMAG

SMILES: CN(Cc1ccccc1CNc1cccn2nc(Nc3ccc(OCCN4CCCC4)cc3)nc12)S(C)(=O)=O [Example 158, N-Methyl-N-[2-({2-[4-(2-pyrrolidin-1-yl-ethoxy)-phenylamino]-[1,2,4]triazolo[1,5-a]pyridin-8-ylamino}-methyl)-benzyl]-methanesulfonamide]
- IC50 (human JAK2): 97.5 nM
- IC50 (human FAK): 276 nM

SMILES: CCOc1ccc(C(F)(F)F)cc1-c1cccn2nc(Nc3ccc4c(c3)CCN(CCS(C)(=O)=O)CC4)nc12 [Example 320, [8-(2-Ethoxy-5-trifluoromethyl-phenyl)-[1,2,4]triazolo[1,5-a]pyridin-2-yl]-[3-(2-methanesulfonyl-ethyl)-2,3,4,5-tetrahydro-1H-3-benzazepin-7yl)-amine]
- IC50 (human JAK2): 160 nM
- IC50 (human FAK): 3000 nM

SMILES: COc1ccc(Nc2nc3c(Nc4ccc(S(C)(=O)=O)cc4)cccn3n2)cc1 [Example 38, N(8)-(4-Methanesulfonyl-phenyl)-N(2)-(4-methoxy-phenyl)-[1,2,4]triazolo[1,5-a]pyridine-2,8-diamine]
- IC50 (human JAK2): 470 nM
- IC50 (human FAK): 10000 nM

SMILES: CN1CCN(c2cccc(Nc3nc4c(NCc5ccccc5CN(C)S(C)(=O)=O)cccn4n3)c2)CC1 [Example 157, N-Methyl-N-[2-({2-[3-(4-methyl-piperazin-1-yl)-phenylamino]-[1,2,4]triazolo[1,5-a]pyridin-8-ylamino}-methyl)-benzyl]-methanesulfonamide]
- IC50 (human JAK2): 220 nM
- IC50 (human FAK): 300 nM

SMILES: CS(=O)(=O)c1ccc(-c2cccn3nc(Nc4ccc(OCCN5CCCC5)cc4)nc23)cc1 [Example 10, [8-(4-Methanesulfonyl-phenyl)-[1,2,4]triazolo[1,5-a]pyridin-2-yl]-[4-(2-pyrrolidin-1-yl-ethoxy)-phenyl]-amine]
- IC50 (human JAK2): 1 nM
- IC50 (human FAK): 206 nM

SMILES: FC(F)COc1ccc(C(F)(F)F)cc1-c1cccn2nc(Nc3ccc4c(c3)CCNCC4)nc12 [Example 328]
- IC50 (human JAK2): 257 nM
- IC50 (human FAK): 999 nM

SMILES: CS(=O)(=O)c1cccc(-c2cccn3nc(Nc4cccc(N5CCOCC5)c4)nc23)c1 [Example 29, [8-(3-Methanesulfonyl-phenyl)-[1,2,4]triazolo[1,5-a]pyridin-2-yl]-(3-morpholin-4-yl-phenyl)-amine]
- IC50 (human JAK2): 5.6 nM
- IC50 (human FAK): 1350 nM

SMILES: CN1CCC(c2ccc(Nc3nc4c(NCc5ccccc5N(C)S(C)(=O)=O)cccn4n3)cc2)CC1 [Example 149, N-Methyl-N-[2-({2-[4-(1-methyl-piperidin-4-yl)-phenylamino]-[1,2,4]triazolo[1,5-a]pyridin-8-ylamino}-methyl)-phenyl]-methanesulfonamide]
- IC50 (human JAK2): 38.5 nM
- IC50 (human FAK): 13.6 nM

SMILES: COCc1ccccc1-c1cccc2nc(Nc3ccc4c(c3)CCN(C(=O)OC(C)(C)C)CC4)nn12 [Example 226, 7-[5-(2-Methoxymethyl-phenyl)-[1,2,4]triazolo[1,5-a]pyridin-2-ylamino]-1,2,4,5-tetrahydro-benzo[d]azepine-3-carboxylic acid tert-butyl ester]
- IC50 (human JAK2): 650 nM
- IC50 (human FAK): 10000 nM

SMILES: COc1ccc(Nc2nc3c(Nc4ccccc4S(C)(=O)=O)cccn3n2)cc1 [Example 47, N(8)-(2-Methanesulfonyl-phenyl)-N(2)-(4-methoxy-phenyl)-[1,2,4]triazolo[1,5-a]pyridine-2,8-diamine]
- IC50 (human JAK2): 12.8 nM
- IC50 (human FAK): 3000 nM

SMILES: CC(Nc1cccn2nc(Nc3ccc(N4CCN(C)CC4)cc3)nc12)c1ccccc1N(C)S(C)(=O)=O (stereo not drawn) [Example 197, N-Methyl-N-[2-(1-{2-[4-(4-methyl-piperazin-1-yl)-phenylamino]-[1,2,4]triazolo[1,5-a]pyridin-8-ylamino}-ethyl)-phenyl]-methanesulfonamide]
- IC50 (human JAK2): 418 nM
- IC50 (human FAK): 999 nM

SMILES: COc1ccc(Nc2nc3c(NCc4ccccc4OC)cccn3n2)cn1 [Example 402, N(8)-(2-Methoxy-benzyl)-N(2)-(6-methoxy-pyridin-3-yl)-[1,2,4]triazolo[1,5-a]pyridine-2,8-diamine]
- IC50 (human JAK2): 42.7 nM
- IC50 (human FAK): 3000 nM

SMILES: CN1CCN(c2cccc(Nc3nc4c(-c5cccc(CN(C)S(C)(=O)=O)c5)cccn4n3)c2)CC1 [Example 176, N-Methyl-N-(3-{2-[3-(4-methyl-piperazin-1-yl)-phenylamino]-[1,2,4]triazolo[1,5-a]pyridin-8-yl}-benzyl)-methanesulfonamide]
- IC50 (human JAK2): 5.94 nM
- IC50 (human FAK): 3000 nM

SMILES: CS(=O)(=O)c1ccccc1CNc1cccn2nc(Nc3ccc(OCCN4CCCC4)cc3)nc12 [Example 141, N(8)-(2-Methanesulfonyl-benzyl)-N(2)-[4-(2-pyrrolidin-1-yl-ethoxy)-phenyl]-[1,2,4]triazolo[1,5-a]pyridine-2,8-diamine]
- IC50 (human JAK2): 15.1 nM
- IC50 (human FAK): 98.8 nM

SMILES: CN(c1ccccc1CNc1cccn2nc(Nc3ccc4c(c3)CCC(N3CCOCC3)CC4)nc12)S(C)(=O)=O (stereo not drawn) [Example 200, N-Methyl-N-(2-{[2-(7-morpholin-4-yl-6,7,8,9-tetrahydro-5H-benzocyclohepten-2-ylamino)-[1,2,4]triazolo[1,5-a]pyridin-8-ylamino]-methyl}-phenyl)-methanesulfonamide]
- IC50 (human JAK2): 134 nM
- IC50 (human FAK): 18.2 nM

SMILES: COc1ccc(C(F)(F)F)cc1-c1cccc2nc(Nc3ccc4c(c3)CCN(CC(=O)N(C)C)CC4)nn12 [Example 237]
- IC50 (human JAK2): 53.9 nM
- IC50 (human FAK): 714 nM

SMILES: CN(c1ccc(-c2cccn3nc(Nc4ccc(CN5CCS(=O)(=O)CC5)cc4)nc23)cc1)S(C)(=O)=O [Example 119, N-{4-[2-({4-[(1,1-dioxidothiomorpholin-4-yl)methyl]phenyl}amino)[1,2,4]triazolo[1,5-a]pyridin-8-yl]phenyl}-N-methylmethanesulfonamide]
- IC50 (human JAK2): 0.27 nM
- IC50 (human FAK): 10000 nM

SMILES: CN(c1ncccc1CNc1cccn2nc(Nc3ccc(N4CCN(CCO)CC4)cc3)nc12)S(C)(=O)=O [Example 155, N-{3-[(2-{4-[4-(2-Hydroxy-ethyl)-piperazin-1-yl]-phenylamino}-[1,2,4]triazolo[1,5-a]pyridin-8-ylamino)-methyl]-pyridin-2-yl}-N-methyl-methanesulfonamide]
- IC50 (human JAK2): 36 nM
- IC50 (human FAK): 379 nM

SMILES: CS(=O)(=O)c1ccc(-c2cccc3nc(Nc4ccc(OCCN5CCCC5)cc4)nn23)cc1 [Example 73, [5-(4-Methanesulfonyl-phenyl)-[1,2,4]triazolo[1,5-a]pyridin-2-yl]-[4-(2-pyrrolidin-1-yl-ethoxy)-phenyl]-amine]
- IC50 (human JAK2): 2.1 nM
- IC50 (human FAK): 227 nM

SMILES: CS(=O)(=O)c1ccc(-c2cccn3nc(Nc4ccc(CN5CCOCC5)cc4)nc23)cc1 [Example 43, [8-(4-Methanesulfonyl-phenyl)-[1,2,4]triazolo[1,5-a]pyridin-2-yl]-(4-morpholin-4-ylmethyl-phenyl)-amine]
- IC50 (human JAK2): 2.2 nM
- IC50 (human FAK): 1170 nM

SMILES: CN1CCN(c2ccc(Nc3nc4c(OCc5ccccc5N(C)S(C)(=O)=O)cccn4n3)cc2)CC1 [Example 195, N-Methyl-N-(2-{2-[4-(4-methyl-piperazin-1-yl)-phenylamino]-[1,2,4]triazolo[1,5-a]pyridin-8-yloxymethyl}-phenyl)-methanesulfonamide]
- IC50 (human JAK2): 15 nM
- IC50 (human FAK): 21.8 nM

SMILES: CC(C)COc1cccc(-c2cccn3nc(Nc4ccc5c(c4)CCNCC5)nc23)c1 [Example 294, [8-(3-Isobutoxy-phenyl]-[1,2,4]triazolo[1,5a]pyridine-2-yl]-(2,3,4,5-tetrahydro-benzo[d]azepin-7-yl)-amine]
- IC50 (human JAK2): 32.6 nM
- IC50 (human FAK): 3000 nM

SMILES: COc1ccc(C(F)(F)F)cc1-c1cccn2nc(Nc3ccc4c(c3)CCN(CC(=O)N(C)C)CC4)nc12 [Example 317, 2-{7-[8-(2-Methoxy-5-trifluoromethyl-phenyl)-[1,2,4]triazolo[1,5-a]pyridin-2-ylamino]-1,2,4,5-tetrahydro-3-benzazepin-3-yl}-N,N-dimethyl-acetamide]
- IC50 (human JAK2): 54.5 nM
- IC50 (human FAK): 2000 nM

SMILES: CS(=O)(=O)c1ccc(-c2cccc3nc(Nc4cccc(CN5CCOCC5)c4)nn23)cc1 [Example 117, [5-(4-Methanesulfonyl-phenyl)-[1,2,4]triazolo[1,5-a]pyridin-2-yl]-(3-morpholin-4-ylmethyl-phenyl)-amine]
- IC50 (human JAK2): 0.95 nM
- IC50 (human FAK): 1470 nM

SMILES: COc1cccc(CNc2cccn3nc(Nc4ccc(N5CCN(C)CC5)cc4)nc23)c1 [Example 390, N(8)-(3-Methoxy-benzyl)-N(2)-[4-(4-methyl-piperazin-1-yl)-phenyl]-[1,2,4]triazolo[1,5-a]pyridine-2,8-diamine]
- IC50 (human JAK2): 1340 nM
- IC50 (human FAK): 10000 nM

SMILES: COc1cccc(Nc2nc3c(-c4ccc(S(C)(=O)=O)cc4)cccn3n2)c1 [Example 40, [8-(4-Methanesulfonyl-phenyl)-[1,2,4]triazolo[1,5-a]pyridin-2-yl]-(3-methoxy-phenyl)-amine]
- IC50 (human JAK2): 1 nM
- IC50 (human FAK): 1360 nM

SMILES: CN(C)C(=O)CN1CCc2ccc(Nc3nc4c(-c5cc(C(F)(F)F)ccc5OCC(F)F)cccn4n3)cc2CC1 [Example 329, 2-(7-{8-[2-(2,2-Difluoro-ethoxy)-5-trifluoromethyl-phenyl]-[1,2,4]triazolo[1,5-a]pyridin-2-ylamino}-1,2,4,5-tetrahydro-3-benzazepin-3-yl)-N,N-dimethyl-acetamide]
- IC50 (human JAK2): 317 nM
- IC50 (human FAK): 999 nM

SMILES: CS(=O)(=O)c1ccc(-c2cccc3nc(Nc4ccc(CN5CCS(=O)(=O)CC5)cc4)nn23)cc1 [Example 115, N-{4-[(1,1-dioxidothiomorpholin-4-yl)methyl]phenyl}-5-[4-(methylsulfonyl)phenyl][1,2,4]triazolo[1,5-a]pyridin-2-amine]
- IC50 (human JAK2): 0.66 nM
- IC50 (human FAK): 1050 nM

SMILES: COc1ccc(C(F)(F)F)cc1-c1cccn2nc(Nc3ccc(OCCN4CCOCC4)cc3)nc12 [Example 258, [8-(2-Methoxy-5-trifluoromethyl-phenyl)-[1,2,4]triazolo[1,5-a]pyridin-2-yl]-[4-(2-morpholin-4-yl-ethoxy)-phenyl]-amine]
- IC50 (human JAK2): 84.5 nM
- IC50 (human FAK): 6500 nM

SMILES: COc1cccc(CNc2cccn3nc(Nc4ccnc(C)c4)nc23)c1 [Example 397, N(8)-(3-Methoxy-benzyl)-N(2)-(2-methyl-pyridin-4-yl)-[1,2,4]triazolo[1,5-a]pyridine-2,8-diamine]
- IC50 (human JAK2): 592 nM
- IC50 (human FAK): 10000 nM
